Test results as given in BindingDB's records for doi:10.1016/0960-894X(95)00174-R (1995).

Experiments:
[1] = biological target: Platelet-activating factor receptor (Oryctolagus cuniculus); assay: In vitro inhibitory activity against PAF-induced aggregation of rabbit platelets
[2] = biological target: Platelet-activating factor receptor (Oryctolagus cuniculus); assay: In vitro ability to displace [3H]PAF from PAF receptor in rabbit platelet membranes

Compound | IC50 [1] [nM] | Ki [2] [nM]
CCCCCCCCCCCCCCCCCCNC(=O)OC[C@H]1C[C@H](COC(=O)N(Cc2cccc[n+]2CC)C(=O)c2ccc(OC)cc2)S1 [1-Ethyl-2-{[(4-methoxy-benzoyl)-(4-octadecylcarbamoyloxymethyl-thietan-2-ylmethoxycarbonyl)-amino]-methyl}-pyridinium; chloride] | 84 | 34
CCCCCCCCCCCCCCCCCCNC(=O)OC[C@H]1C[C@H](COC(=O)N(Cc2cccc[n+]2CC)C(C)=O)C1 [2-{[Acetyl-(3-octadecylcarbamoyloxymethyl-cyclobutylmethoxycarbonyl)-amino]-methyl}-1-ethyl-pyridinium; iodide] |  | 4.3
CCCCCCCCCCCCCCCCCCNC(=O)OC[C@H]1C[C@H](COC(=O)N(Cc2cccc[n+]2CC)C(C)=O)N1C(C)=O [2-{[Acetyl-((2R,4R)-1-acetyl-4-octadecylcarbamoyloxymethyl-azetidin-2-ylmethoxycarbonyl)-amino]-methyl}-1-ethyl-pyridinium; chloride] |  | 35
CCCCCCCCCCCCCCCCOC[C@H]1C[C@@H](COC(=O)N(Cc2cccc[n+]2CC)C(C)=O)O1 [2-{[Acetyl-((2S,4R)-4-hexadecyloxymethyl-oxetan-2-ylmethoxycarbonyl)-amino]-methyl}-1-ethyl-pyridinium; iodide] | 95 | 21
CCCCCCCCCCCCCCCCOC[C@@H]1C[C@@H](COC(=O)N(Cc2cccc[n+]2CC)C(C)=O)O1 [2-{[Acetyl-((2S,4S)-4-hexadecyloxymethyl-oxetan-2-ylmethoxycarbonyl)-amino]-methyl}-1-ethyl-pyridinium; iodide] | 57 | 15

Continued, values first:

IC50 [1] [nM] | Ki [2] [nM] | Compound
52 | 20 | CCCCCCCCCCCCCCCCOC[C@H]1C[C@H](COC(=O)N(Cc2cccc[n+]2CC)C(C)=O)S1 [2-{[Acetyl-((2R,4R)-4-hexadecyloxymethyl-thietan-2-ylmethoxycarbonyl)-amino]-methyl}-1-ethyl-pyridinium; chloride]
57 | 4.3 | CCCCCCCCCCCCCCCCCCNC(=O)OC[C@H]1C[C@H](COC(=O)N(Cc2cccc[n+]2CC)C(C)=O)S1 [2-{[Acetyl-((2R,4R)-4-octadecylcarbamoyloxymethyl-thietan-2-ylmethoxycarbonyl)-amino]-methyl}-1-ethyl-pyridinium; chloride]
61 | 9.8 | CCCCCCCCCCCCCCCCCCNC(=O)OC[C@H]1C[C@@H](COC(=O)N(Cc2cccc[n+]2CC)C(C)=O)S1 [2-{[Acetyl-((2S,4R)-4-octadecylcarbamoyloxymethyl-thietan-2-ylmethoxycarbonyl)-amino]-methyl}-1-ethyl-pyridinium; chloride]
 | 9.8 | CCCCCCCCCCCCCCCCNC(=O)OC[C@@H]1C[C@@H](COC(=O)N(Cc2cccc[n+]2CC)C(C)=O)S1 [2-{[Acetyl-((2S,4S)-4-hexadecylcarbamoyloxymethyl-thietan-2-ylmethoxycarbonyl)-amino]-methyl}-1-ethyl-pyridinium; chloride]
